The experiment has as its target T1, Recombinant human renin (Homo sapiens, UniProt P00797).
T1 construct: isolate the active form (residues 67-406); made in house; host or cells: FreeStyle 293-F cells (transient expression of pcDNA3.1(+)/hREN)
T1 sequence (P00797 67-406): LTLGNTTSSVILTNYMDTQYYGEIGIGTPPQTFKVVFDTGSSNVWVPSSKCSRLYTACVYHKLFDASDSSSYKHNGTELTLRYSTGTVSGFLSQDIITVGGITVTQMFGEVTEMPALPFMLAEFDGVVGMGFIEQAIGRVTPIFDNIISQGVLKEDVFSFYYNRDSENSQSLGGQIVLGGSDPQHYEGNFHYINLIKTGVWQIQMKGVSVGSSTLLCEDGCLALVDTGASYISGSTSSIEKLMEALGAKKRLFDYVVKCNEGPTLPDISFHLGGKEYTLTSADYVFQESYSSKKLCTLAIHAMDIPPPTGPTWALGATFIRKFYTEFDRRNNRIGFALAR
Briefly: In vitro enzymatic activity assay of renin inhibitors (fluorogenic peptide substrate). The experiment is classed as biochemical. In short, it runs like this:
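Enzyme: recombinant human renin, 3 nM final, 10 min compound pre-incubation at 37 °C; buffer 50 mM Hepes pH 7.4 with 0.1 mg/mL BSA or extra 2% BSA; 5% DMSO.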

[1] abbreviates: read-out: IC50 of Exemplified Compounds Against Renin.

Each structure is given as a SMILES string. Where two headings read alike, the source gives them in different places. Bounds are passed on as bounds.

Take `COCCCn1c([C@@H]2CCCN(C(=O)C[C@H](N)Cc3ccc4ccccc4c3)C2)nc2c(OC)cccc21` [Compound 104, (R)-3-amino-1((R)-3-(4-methoxy-1-(3-methoxypropyl)-1H-benzo[d]imidazol-2-yl)piperidin-1-yl)-4-(naphthalen-2-yl)butan-1-one]: the IC50 under setting [1] lay in the range of 100 to 1000 nM. For `COCCCn1c([C@@H]2CCCN(C(=O)C[C@H](N)Cc3ccc4ccccc4c3)C2)nc2cc([N+](=O)[O-])ccc21` [Compound 115, (R)-3-arni no-1-((R)-3-(1-(3-methoxypropyl)-5-nitro-1H-benzo[d]imidazol-2-yl)piperidin-1-yl)-4-(naphthalen-2-yl)butan-1-one], the IC50 under setting [1] lay within 100 to 1000 nM. `COCCCn1c([C@@H]2CCCN(C(=O)[C@@H]3CN(S(=O)(=O)c4ccccc4C#N)C[C@H]3N)C2)nc2ccccc21` [Compound 427, 2-((3S,4R)-3-amino-4-((R)-3-(1-(3-methoxypropyl)-1H-benzo[d]imidazol-2-yl)piperidine-1-carbonyl)pyrrolidin-1-ylsulfonyl)benzonitrile]: the half-inhibitory concentration (IC50) under setting [1] was above 1000 nM. As for `N[C@@H](CC(=O)N1CCCC(c2nc3ccccc3[nH]2)C1)c1ccccc1[N+](=O)[O-]` (stereo partly drawn) [Compound 26, (3S)-1-(3-(1H-benzo[d]imidazol-2-yl)piperidin-1-yl)-3-amino-3-(2-nitrophenyl)propan-1-one], the IC50 under setting [1] was above 1000 nM. As for `COCCCn1c([C@@H]2CCCN(C(=O)C[C@H](N)CNC(=O)Nc3ccccc3Cl)C2)nc2ccccc21` [Compound 257, 1-((S)-2-amino-4-((R)-3-(1-(3-methoxypropyl)-1H-benzo[d]imidazol-2-yl)piperidin-1-yl)-4-oxobutyl)-3-(2-chlorophenyl)urea], the half-maximal inhibitory concentration (IC50) is below 100 nM. Regarding `CC(=O)NCCn1c([C@@H]2CCCN(C(=O)C[C@H](N)Cc3ccc(-c4ccc(O)nc4)cc3)C2)nc2c(Cl)cccc21` [Compound 478, N-(2-(2-((R)-1-((R)-3-amino-4-(4-(6-hydroxypyridin-3-yl)phenyl)butanoyl)piperidin-3-yl)-4-chloro-1H-benzo[d]imidazol-1-yl)ethyl)acetamide], the IC50 under setting [1] is 100 to 1000 nM. Turning to `COCCCn1c([C@@H]2CCCN(C(=O)[C@@H]3CN(S(=O)(=O)c4cccc(-c5nnc(C)o5)c4)C[C@H]3N)C2)nc2ccccc21` [Compound 431, ((3R,4S)-4-amino-1-(3-(5-methyl-1,3,4-oxadiazol-2-yl)phenylsulfonyl)pyrrolidin-3-yl)((R)-3-(1-(3-methoxypropyl)-1H-benzo[d]imidazol-2-yl)piperidin-1-yl)methanone], the IC50 under setting [1] is above 1000 nM. Regarding `COCCCn1c([C@@H]2CCCN(C(=O)[C@@H]3CN(C(=O)c4ccc(Cl)cc4)C[C@H]3N)C2)nc2ccccc21` [Compound 416, ((3R,4S)-4-amino-1-(4-chlorobenzoyl)pyrrolidin-3-yl)((R)-3-(1-(3-methoxypropyl)-1H-benzo[d]imidazol-2-yl)piperidin-1-yl)methanone], the concentration for half-maximal inhibition (IC50) under setting [1] is above 1000 nM.

As for `O=C(Nc1ccc(Cl)c(C(F)(F)F)c1)N1CCCC(c2nc3ccccc3[nH]2)C1` (stereo not shown) [Compound 7, 3-(1H-benzo[d]imidazol-2-yl)-N-(4-chloro-3-(trifluoromethyl)phenyl)piperidine-1-carboxamide], under setting [1], the IC50 is above 1000 nM. On to `COCCCn1c([C@@H]2CCCN(C(=O)C[C@H](N)CNC(=O)CC3CCCCC3)C2)nc2ccccc21` [Compound 319, N-((S)-2-amino-4-((R)-3-(1-(3-methoxypropyl)-1H-benzo[d]imidazol-2-yl)piperidin-1-yl)-4-oxobutyl)-2-cyclohexylacetamide], for which the 50% inhibitory concentration (IC50) under setting [1] is 100 to 1000 nM. With `COCCCn1c([C@@H]2CCCN(C(=O)[C@@H]3CN(C(=O)c4cccc(OC)c4)C[C@H]3N)C2)nc2ccccc21` [Compound 421, ((3R,4S)-4-amino-1-(3-methoxybenzoyl)pyrrolidin-3-yl)((R)-3-(1-(3-methoxypropyl)-1H-benzo[d]imidazol-2-yl)piperidin-1-yl)methanone], under setting [1], the IC50 was above 1000 nM. In the case of `COCCCn1c([C@@H]2CCCN(C(=O)C[C@H](N)CNC(=O)c3cc4ccccc4o3)C2)nc2ccccc21` [Compound 263, N-((S)-2-amino-4-((R)-3-(1-(3-methoxypropyl)-1H-benzo[d]imidazol-2-yl)piperidin-1-yl)-4-oxobutyl)benzofuran-2-carboxamide], the IC50 under setting [1] lay within 100 to 1000 nM.

Regarding `O=C([C@H]1CCCN1)N1CCCC(c2nc3ccccc3[nH]2)C1` (stereo partly drawn) [Compound 54, (3-(1H-benzo[d]imidazol-2-yl)piperidin-1-yl)((R)-pyrrolidin-2-yl)methanone], the IC50 under setting [1] is above 1000 nM. On the same count and under the same terms, to `O=C(Nc1ccc2c(c1)OCO2)N1CCCC(c2nc3ccccc3[nH]2)C1` (stereo not shown) [Compound 11, N-(benzo[d][1,3]dioxol-5-yl)-3-(1H-benzo[d]imidazol-2-yl)piperidine-1-carboxamide] belongs above 1000 nM; to `O=C(Nc1ccc2ccccc2c1)N1CCCC(c2nc3ccccc3[nH]2)C1` (stereo not shown) [Compound 4, 3-(1H-benzo[d]imidazol-2-yl)-N-(naphthalen-2-yl)piperidine-1-carboxamide], above 1000 nM; to `CCOc1ccc(-c2ccc(C[C@@H](N)CC(=O)N3CCC[C@@H](c4nc5ccccc5n4CCCOC)C3)cc2)cn1` [Compound 138, (R)-3-amino-4-(4-(6-ethoxypyridin-3-yl)phenyl)-1-((R)-3-(1-(3-methoxypropyl)-1H-benzo[d]imidazol-2-yl)piperidin-1-yl)butan-1-one], below 100 nM. As for `COCCCn1c([C@@H]2CCCN(C(=O)C[C@H](N)Cc3ccc(-c4ccco4)cc3)C2)nc2ccccc21` [Compound 146, (R)-3-Amino-4-(4-(furan-2-yl)phenyl)-1-((R)-3-(1-(3-methoxypropyl)-1H-benzo[d]imidazol-2-yl)piperidin-1-yl)butan-1-one], the IC50 under setting [1] was below 100 nM. Same read-out and setting: to `COCCCn1c([C@@H]2CCCN(C(=O)C[C@H](N)Cc3ccc(-c4ccccc4F)cc3)C2)nc2ccccc21` [Compound 160, (R)-3-amino-4-(2′-fluorobiphenyl-4-yl)-1-((R)-3-(1-(3-methoxypropyl)-1H-benzo[d]imidazol-2-yl)piperidin-1-yl)butan-1-one] belongs below 100 nM. On the same count and under the same terms, with `COCCCn1c([C@@H]2CCCN(C(=O)C[C@H](N)CNS(=O)(=O)c3ccccc3)C2)nc2ccccc21` [Compound 316, N-((S)-2-amino-4-((R)-3-(1-(3-methoxypropyl)-1H-benzo[d]imidazol-2-yl)piperidin-1-yl)-4-oxobutyl)benzenesulfonamide] the figure was 100 to 1000 nM; with `COCCCn1c([C@@H]2CCCN(C(=O)C[C@H](N)Cc3ccc(-c4ccc(N5CCOCC5)cc4)cc3)C2)nc2ccccc21` [Compound 128, (R)-3-amino-1-((R)-3-(1-(3-methoxypropyl)-1H-benzo[d]imidazol-2-yl)piperidin-1-yl)-4-(4′-morpholinobiphenyl-4-yl)butan-1-one], below 100 nM. Consider `COCCCn1c([C@@H]2CCCN(C(=O)C[C@H](N)CNC(=O)Nc3ccc(OC)cc3)C2)nc2ccccc21` [Compound 253, 1-((S)-2-amino-4-((R)-3-(1-(3-methoxypropyl)-1H-benzo[d]imidazol-2-yl)piperidin-1-yl)-4-oxobutyl)-3-(4-methoxyphenyl)urea], for which the half-inhibitory concentration (IC50) under setting [1] is below 100 nM. With `N[C@@H](CC(=O)N1CCCC(c2nc3ccccc3[nH]2)C1)Cc1cccc2ccccc12` (stereo partly drawn) [Compound 38, (3R)-1-(3-(1H-benzo[d]imidazol-2-yl)piperidin-1-yl)-3-amino-4-(naphthalen-1-yl)butan-1-one], the 50% inhibitory concentration (IC50) under setting [1] was above 1000 nM.

For the origin of these results see patent publication US8138168B1 (Takeda Pharmaceutical Company Limited, priority 2007, dated 2012).
